Results: paper PMC10520499, “Next step in the development of mesoprogestins: the preclinical profile of EC313” (Frontiers in Endocrinology, 2023)

What was measured:
[1] = test system: estrogen-primed endometrium of immature rabbits; assay: McPhail assay, estrogen-primed rabbit endometrium; type: in vivo; conditions: for Score 2 for PR-agonistic activity / Score 2 for PR-antagonistic activity: dose giving McPhail score 2; for Score 2 for PR-antagonistic activity: concomitant progesterone (1 g/animal/day [sic] s.c.)
Protocol: The secretory transformation of estrogen-primed endometrium of immature rabbits indicates the strength of the progestagenic action on the endometrium of the chosen test compound. The simultaneous administration of test compounds with progesterone can indicate potential anti-progestagenic actions.
Female rabbits received daily s.c. injections of 5.0 µg 17β-Estradiol/per animal for 6 days leading to the proliferation of the endometrium. From day 7 to day 13 the animals received doses of vehicle, EC313 (1 to 30 mg/animal/day s.c) or progesterone. On day 14, the animals were sacrificed and the uteri were processed for histological evaluation and the secretory endometrial transformation was rated according to a modified McPhail score (1 – 4).
The rating scale ranges from 1 (no or very low secretory, transformation, or agonistic activity) to 4 (highest secretory, transformation, or agonistic activity). The McPhail score of 2 (median) was selected for the comparison. The antagonistic activity was measured by the concomitant administration of progesterone ([…] s.c.).

cycling guinea pigs = assay: Ovulation inhibition in cycling guinea pigs; type: in vivo, guinea pig; conditions: cycle days 10-17
Protocol: Test compounds were administered once daily from cycle days 10-17 by s. c. injection using 0.2 mL vehicle (benzyl-benzoate/castor oil, ratio 1 + 4 v/v). The time of autopsy (day 18) was 24-48h after the expected ovulation at the end of the treatment cycle. This design permits the study of the effects of the tested compounds on the expected ovulation. Fresh CL were evidence of a recent ovulation.

GR = target: T1, GR (Homo sapiens, UniProt P04150); assay: GR transactivation (HELA, MMTV-LUC); type: cell-based; parameters: HELA cells line carrying endogenous glucocorticoid protein; endogenous in cells; host or cells: HELA, stably transfected with the reporter only; conditions: comparative transactivation profile; read-out: Potency, GR Antagonism
T1 sequence (P04150 1-777): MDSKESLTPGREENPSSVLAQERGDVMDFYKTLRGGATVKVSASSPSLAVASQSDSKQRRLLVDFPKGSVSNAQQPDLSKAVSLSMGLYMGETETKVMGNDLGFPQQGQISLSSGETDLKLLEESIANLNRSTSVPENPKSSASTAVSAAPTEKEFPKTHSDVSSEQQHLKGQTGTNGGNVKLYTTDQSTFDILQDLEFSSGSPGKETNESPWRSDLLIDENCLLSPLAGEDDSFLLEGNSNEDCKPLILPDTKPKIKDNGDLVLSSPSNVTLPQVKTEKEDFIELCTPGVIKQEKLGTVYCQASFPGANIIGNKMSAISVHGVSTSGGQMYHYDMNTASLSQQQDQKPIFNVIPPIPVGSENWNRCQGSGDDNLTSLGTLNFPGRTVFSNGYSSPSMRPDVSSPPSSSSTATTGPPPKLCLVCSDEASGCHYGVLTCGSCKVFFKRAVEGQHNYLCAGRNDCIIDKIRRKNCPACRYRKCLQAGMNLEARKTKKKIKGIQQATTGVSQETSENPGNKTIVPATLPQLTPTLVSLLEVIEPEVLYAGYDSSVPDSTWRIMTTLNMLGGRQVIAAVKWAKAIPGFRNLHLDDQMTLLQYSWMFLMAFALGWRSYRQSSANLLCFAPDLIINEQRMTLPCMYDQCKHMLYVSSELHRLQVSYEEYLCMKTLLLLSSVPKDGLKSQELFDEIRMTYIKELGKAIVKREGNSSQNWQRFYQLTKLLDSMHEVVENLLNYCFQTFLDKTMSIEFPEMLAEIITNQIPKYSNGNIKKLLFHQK
Protocol: HELA cells line carrying endogenous glucocorticoid protein were cultured in order to study gene expression on the transcriptional level under the influence of the tested compounds. The cells were transfected with reporter vector MMTV/LUC. To produce high protein overexpression, stable transfection was carried out. […] Agonist and antagonist properties of EC313 toward tested receptor GR were analyzed using luminescence detection.
In order to develop the transfection assay, plasmids were generated and isolated. Vector pGL4.36 coding the glucocorticoid receptor responsive element MMTV and firefly luciferase reporter vector [luc2P/Hygro] were used as a reporter system (pGL4.36-MMTV/LUC). The cells were transfected with reporter vector MMTV/LUC.
stable transfection with reporter vector was performed on a 6-well plate (0.5x10^6 cells per well) in culture medium (EMEM, 10% FBS, NEAA, sodium […], L-glutamine). Briefly, according to the transfection procedure, cells were passaged, and they grew in a culture medium containing an appropriate concentration of the antibiotic (Hygromycin 150 µg/mL). Resistance to Hygromycin gene, which had been transfected together with the reporter vector to the cells, only allowed positively transfected cells to grow in this medium. Therefore, growing cell clones were selected for further steps as stable transfectants.
After 24h incubation of cells with the tested compounds, luciferase activity was measured using VICTOR™ X Multilabel Plate Reader -Perkin Elmer.

T47D cells = assay: Proliferation / arrest in Go/G1 in T47D cells; type: cell-based, human; parameters: key to Arrest in Go/G1: ↓/↑ - decreased/increased action of tested compounds.; ↓/↑ - decreased/increased action of tested compounds; conditions: Proliferation; T47D cells; statistical significance not always reached
PR-B – NCoR = target: T2, PR-B – NCoR (Homo sapiens, UniProt P06401); assay: PR-B – NCoR interaction, two-hybrid system; type: cell-based
T2 construct: expressed in transfected cells
T2 sequence (P06401 whole entry): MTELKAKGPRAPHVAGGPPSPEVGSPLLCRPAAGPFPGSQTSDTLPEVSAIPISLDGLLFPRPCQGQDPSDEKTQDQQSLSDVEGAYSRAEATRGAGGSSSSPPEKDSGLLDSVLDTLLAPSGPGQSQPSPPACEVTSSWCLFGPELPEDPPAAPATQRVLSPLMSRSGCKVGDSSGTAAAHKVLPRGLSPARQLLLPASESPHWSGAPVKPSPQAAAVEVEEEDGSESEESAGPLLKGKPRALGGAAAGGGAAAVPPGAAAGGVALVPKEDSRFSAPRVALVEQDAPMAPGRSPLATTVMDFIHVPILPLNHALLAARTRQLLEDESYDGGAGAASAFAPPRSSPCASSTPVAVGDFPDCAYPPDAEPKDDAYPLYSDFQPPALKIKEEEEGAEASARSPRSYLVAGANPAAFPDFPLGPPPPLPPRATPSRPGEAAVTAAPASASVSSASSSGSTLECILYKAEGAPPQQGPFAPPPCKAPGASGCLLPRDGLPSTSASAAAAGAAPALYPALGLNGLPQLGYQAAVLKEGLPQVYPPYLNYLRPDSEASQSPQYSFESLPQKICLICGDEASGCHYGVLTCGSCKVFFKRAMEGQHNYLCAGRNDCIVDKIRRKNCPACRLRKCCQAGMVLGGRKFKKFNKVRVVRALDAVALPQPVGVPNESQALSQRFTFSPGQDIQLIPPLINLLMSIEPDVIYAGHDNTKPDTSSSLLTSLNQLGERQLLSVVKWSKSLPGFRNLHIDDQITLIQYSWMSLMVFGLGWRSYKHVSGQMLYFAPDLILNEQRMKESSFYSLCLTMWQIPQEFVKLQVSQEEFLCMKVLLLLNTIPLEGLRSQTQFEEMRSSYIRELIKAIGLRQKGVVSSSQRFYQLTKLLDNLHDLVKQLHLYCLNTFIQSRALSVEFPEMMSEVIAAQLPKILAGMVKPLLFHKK
T2 sequence (O75376 whole entry partner): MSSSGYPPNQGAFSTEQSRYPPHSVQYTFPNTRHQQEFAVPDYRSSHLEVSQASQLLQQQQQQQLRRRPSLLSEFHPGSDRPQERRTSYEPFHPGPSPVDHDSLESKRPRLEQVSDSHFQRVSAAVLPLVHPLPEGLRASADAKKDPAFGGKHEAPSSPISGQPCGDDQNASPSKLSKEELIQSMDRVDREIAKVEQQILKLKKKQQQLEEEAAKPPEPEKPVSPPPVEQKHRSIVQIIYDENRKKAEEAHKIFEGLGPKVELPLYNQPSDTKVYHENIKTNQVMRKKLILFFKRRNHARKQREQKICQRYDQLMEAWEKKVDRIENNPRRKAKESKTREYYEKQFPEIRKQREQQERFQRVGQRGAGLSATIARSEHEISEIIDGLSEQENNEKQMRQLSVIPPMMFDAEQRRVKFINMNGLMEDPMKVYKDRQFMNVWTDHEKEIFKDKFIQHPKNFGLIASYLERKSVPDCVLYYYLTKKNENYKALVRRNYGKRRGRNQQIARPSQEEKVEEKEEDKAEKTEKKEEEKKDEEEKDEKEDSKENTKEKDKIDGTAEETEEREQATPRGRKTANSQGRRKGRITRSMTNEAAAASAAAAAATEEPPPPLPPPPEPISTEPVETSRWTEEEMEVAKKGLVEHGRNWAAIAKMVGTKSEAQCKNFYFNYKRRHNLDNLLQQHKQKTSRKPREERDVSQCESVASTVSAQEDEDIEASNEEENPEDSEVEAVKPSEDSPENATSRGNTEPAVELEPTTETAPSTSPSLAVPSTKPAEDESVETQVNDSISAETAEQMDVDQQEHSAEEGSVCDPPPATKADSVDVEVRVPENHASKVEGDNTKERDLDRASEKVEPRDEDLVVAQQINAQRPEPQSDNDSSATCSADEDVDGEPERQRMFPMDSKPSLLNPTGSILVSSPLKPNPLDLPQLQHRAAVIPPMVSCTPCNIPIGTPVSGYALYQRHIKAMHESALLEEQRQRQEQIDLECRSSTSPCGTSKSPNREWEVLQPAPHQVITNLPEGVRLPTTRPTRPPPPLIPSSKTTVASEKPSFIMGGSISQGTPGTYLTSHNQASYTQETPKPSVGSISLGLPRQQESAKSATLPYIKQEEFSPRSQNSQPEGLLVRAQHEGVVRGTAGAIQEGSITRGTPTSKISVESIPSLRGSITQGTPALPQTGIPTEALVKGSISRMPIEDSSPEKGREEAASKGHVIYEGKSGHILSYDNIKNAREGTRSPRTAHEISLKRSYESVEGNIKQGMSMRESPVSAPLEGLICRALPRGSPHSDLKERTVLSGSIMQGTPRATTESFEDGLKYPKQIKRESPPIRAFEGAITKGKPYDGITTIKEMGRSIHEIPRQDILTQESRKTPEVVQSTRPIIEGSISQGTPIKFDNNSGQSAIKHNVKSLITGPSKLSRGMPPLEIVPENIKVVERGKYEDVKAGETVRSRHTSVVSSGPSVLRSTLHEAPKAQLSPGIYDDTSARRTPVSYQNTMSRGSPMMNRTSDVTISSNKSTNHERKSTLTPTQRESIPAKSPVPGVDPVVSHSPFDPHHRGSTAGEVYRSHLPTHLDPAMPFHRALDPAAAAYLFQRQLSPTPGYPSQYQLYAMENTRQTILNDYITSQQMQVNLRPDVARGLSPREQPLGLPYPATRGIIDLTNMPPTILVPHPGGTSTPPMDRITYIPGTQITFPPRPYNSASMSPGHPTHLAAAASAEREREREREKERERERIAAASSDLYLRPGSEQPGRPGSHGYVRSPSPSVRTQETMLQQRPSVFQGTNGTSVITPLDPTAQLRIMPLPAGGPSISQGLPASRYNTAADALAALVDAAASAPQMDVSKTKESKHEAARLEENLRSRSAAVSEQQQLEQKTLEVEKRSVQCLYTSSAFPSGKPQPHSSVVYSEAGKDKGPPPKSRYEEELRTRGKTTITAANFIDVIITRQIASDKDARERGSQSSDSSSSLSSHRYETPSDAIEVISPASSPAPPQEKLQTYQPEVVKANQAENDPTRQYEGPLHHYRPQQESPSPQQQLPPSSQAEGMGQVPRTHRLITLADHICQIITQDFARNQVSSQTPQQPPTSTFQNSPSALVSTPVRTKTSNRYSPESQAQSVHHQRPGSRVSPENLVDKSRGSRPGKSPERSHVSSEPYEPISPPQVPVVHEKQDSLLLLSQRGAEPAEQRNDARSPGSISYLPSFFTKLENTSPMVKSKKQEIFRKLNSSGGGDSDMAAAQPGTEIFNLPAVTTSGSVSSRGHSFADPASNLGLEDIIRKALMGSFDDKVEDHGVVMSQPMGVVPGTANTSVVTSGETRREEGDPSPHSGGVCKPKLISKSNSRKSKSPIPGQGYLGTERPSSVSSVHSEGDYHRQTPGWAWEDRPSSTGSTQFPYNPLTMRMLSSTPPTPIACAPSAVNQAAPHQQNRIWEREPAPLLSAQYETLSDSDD
Source text: The active recruitment of the nuclear corepressor NCoR results in transcriptional inactivity of the PR. So, the potency of PR ligands to induce the interaction of PR with NCoR provides information on the antagonistic potency of the ligand. Therefore, the capacity of EC313 to induce the interaction of PR-B with the corepressor NCoR in comparison with reference ligands was studied. All test compounds except the receptor agonist Promegestone induced PR to interact with NCoR.
Figure 11 (A) PR-B interaction with NCoR using a two-hybrid assay. Dose response curve. […] (B) Liganded PR-Binteraction with c-SRC kinase. The data presented are from five independent experiments. Signals are represented as mean luminescence ± SD normalized to maximal promegestone activity equal to 100%.

Cyclin D1 promotor = assay: Activation of Cyclin D1 promotor; type: cell-based, human; conditions: Other signal cascades

Row | Molecule | Score 2 for PR-agonistic activity [1] | Score 2 for PR-antagonistic activity [1] | Number of ovulations vs. number of inseminated females (cycling guinea pigs; 3.0 mg/animal/day s.c.) | Number of ovulations vs. number of inseminated females (cycling guinea pigs; 10.0 mg/animal/day s.c.) | Arrest in Go/G1 (T47D cells) | also measured
1 | C[C@]12C[C@H](c3ccc(S(C)(=O)=O)cc3)C3=C4CCC(=O)C=C4CC[C@H]3[C@@H]1CC[C@@]2(O)C(F)(F)C(F)(F)F [Vilaprisan, reference compound] | n.a.;”pure” antagonist | < 0.3 mg/animal/day s.c. | 0/5 | 0/4 |  | IC50 (GR): 629 nM
2 | CC(=O)[C@H]1CC[C@H]2[C@@H]3CCC4=CC(=O)CC[C@]4(C)[C@H]3CC[C@]12C [Progesterone] | ~ 0.1 mg/animal/day s.c. | n.a. “pure” agonist |  |  |  | 
3 | Telapristone acetate [CDB 4124 Telapristone acetate, reference compound] |  |  |  | 1/3 |  | 
4 | CC#C[C@]1(O)CC[C@H]2[C@@H]3CCC4=CC(=O)CCC4=C3[C@@H](c3ccc(N(C)C)cc3)C[C@@]21C [Mifepristone, reference compound] |  |  | 2/5 | 0/3 | ↑ | Number of ovulations vs. number of inseminated females (cycling guinea pigs; 1.0 mg/animal/day s.c.): 4/5
5 | CCC(=O)[C@@]1(C)CC[C@H]2[C@@H]3CCC4=CC(=O)CCC4=C3CC[C@@]21C [Promegestone, reference compound] |  |  |  |  | ↓ | induction of PR interaction with NCoR (PR-B – NCoR): does not induce NCoR interaction
6 | COC[C@]1(OC)CC[C@H]2[C@@H]3CCC4=CC(=O)CCC4=C3[C@@H](c3ccc(/C=N/O)cc3)C[C@@]21C [Asoprisnil, reference compound] | ~ 0.2 mg/animal/day s.c. | ~ 0.3 mg/animal/day s.c. |  |  | ↑ | Quotient between antagonistic and agonistic action ([1]; McPhail score 2 doses): ~ 1.5; efficacy relative to Ulipristal acetate, NCoR interaction (PR-B – NCoR): 56%; induction of PR interaction with NCoR (PR-B – NCoR): limited ability to induce progesterone receptor interaction with NCoR; IC50 (GR): 1230 nM
7 | C[C@]12C[C@H](c3ccc(-n4ccnc4)cc3)C3=C4CCC(=O)C=C4CCC3C1CC[C@@]2(O)C(F)(F)C(F)(F)F (stereo partly shown) [EC317] |  |  | 0/6 | 0/6 | ↑ | Number of ovulations vs. number of inseminated females (cycling guinea pigs; 0.1 mg/animal/day s.c.): 2/3; Number of ovulations vs. number of inseminated females (cycling guinea pigs; 0.3 mg/animal/day s.c.): 3/3; Number of ovulations vs. number of inseminated females (cycling guinea pigs; 1.0 mg/animal/day s.c.): 0/3; Activation of Cyclin D1 promotor (Cyclin D1 promotor): unclear*
